Test results reported in patent US20150125915A1, “Method for Producing Lactic Acid” (Kao Corporation, priority 2012, published 2015).

Experiments:
[1] = test system: Rhizopus oryzae NBRC 5384 (=JCM14625); test: Evaluation of ability to produce lactic acid-2, strain NBRC 5384; format: cell-based; settings: 0.5% (w/v) at spore germination, control of the strain without surfactant = 100
Procedure: (§1) (1) Spore suspensions were prepared in the same way as in Production Example 1 using Rhizopus oryzae NBRC 4707, NBRC 4785, NBRC 5384 (=JCM14625), and NBRC 5418 strains obtained from a culture collection NBRC.
(§2) (2) Mycelia were prepared from the spores of each strain under the same conditions as in Production Example 2 involving stirring at 100 rpm using 60 mL of a PDB medium non-supplemented or supplemented with 0.5% (w/v) (final concentration) of the surfactant sorbitan monolaurate (Rheodol(R) SP-L10, manufactured by Kao Corp.).
(§3) (3) The total amount of the fungus bodies obtained in (2) was inoculated to 100 mL of an inorganic culture medium under the same conditions as in Production Example 3 to grow the mycelia. […]
(§4) 30 g of the prepared wet fungus bodies of each strain of the genus Rhizopus was inoculated to 100 mL of an inorganic culture medium for lactic acid production evaluation (composition: 12.5% glucose, 0.1% ammonium sulfate, 0.06% potassium dihydrogen phosphate, 0.025% magnesium sulfate heptahydrate, 0.009% zinc sulfate heptahydrate, and 6.25% calcium carbonate; all the concentrations mean % (w/v)) applied to a 500-mL Erlenmeyer flask, and then cultured at 33.5° C. with stirring at 170 rpm. The production rate of lactic acid was determined by the same procedures as in Test Example 2. […]

[2] = test system: Rhizopus oryzae NBRC 5418; test: Evaluation of ability to produce lactic acid-2, strain NBRC 5418; format: cell-based; settings: 0.5% (w/v) at spore germination, control of the strain without surfactant = 100
Procedure: as §1, §2, §3, §4

[3] = test system: Rhizopus oryzae JCM14625 strain (=NBRC 5384); test: Evaluation of ability to produce lactic acid-1 (production rate of lactic acid); format: cell-based; settings: 0.5% (w/v) surfactant in PDB medium at spore germination; rate in the absence of the surfactant = 100
Procedure: Specifically, the mycelia of a fungus of the genus Rhizopus were prepared by the method of Production Example 2 using the surfactant and then grown by the method of Production Example 3. 6.0 g of the obtained wet fungus bodies of the genus Rhizopus was inoculated to 40 mL of an inorganic culture medium for lactic acid production evaluation (composition: 8.0% glucose, 0.1% ammonium sulfate, 0.06% potassium dihydrogen phosphate, 0.025% magnesium sulfate heptahydrate, 0.009% zinc sulfate heptahydrate, and 5.0% calcium carbonate; all the concentrations mean % (w/v)) applied to a 200-mL Erlenmeyer flask, and then cultured at 35° C. with stirring at 170 rpm. The supernatant of the culture medium was recovered every 2 hours from 30 minutes after the fungus body inoculation. Glucose and lactic acid were quantified by the procedures described later in Reference Example 1. A relative value of the production rate of lactic acid was determined on the basis of the calculation method described in Reference Example 2.
Glucose and lactic acid were quantified using an HPLC apparatus LaChrom Elite (manufactured by Hitachi High-Technologies Corp.). The analytical column used was a carbohydrate/organic acid analysis column HPX-87H (7.8 mm I.D.×30 cm, manufactured by Bio-Rad Laboratories, Inc.) connected with a guard column Cation H (4.6 mm I.D.×3.0 cm, manufactured by Bio-Rad Laboratories, Inc.). Elution was performed under conditions involving 10 mM sulfuric acid as an eluent, a flow rate of 0.85 mL/min, and a column temperature of 50° C. Glucose and lactic acid were detected using a differential refractive index detector (RI detector) and a UV detector (detection wavelength: 210 nm), respectively. The standard samples used were glucose (distributor code: 049-31165, manufactured by Wako Pure Chemical Industries Ltd.), and lithium L-lactate (product number: L2250, manufactured by Sigma-Aldrich Inc.). Quantification was performed on the basis of concentration calibration curves prepared using these standard samples.
The supernatant sample of each culture medium to be subjected to HPLC analysis was appropriately diluted in advance with 37 mM sulfuric acid and then applied to DISMIC-13cp (0.20 μm cellulose acetate membrane, manufactured by […] Group) or MULTI SCREEN MNHV45 (0.45 μm Durapore membrane, manufactured by EMD Millipore) to remove insoluble matter.
The concentration of lactic acid (unit: g of lactic acid/L of medium) in the supernatant sample of each culture medium was measured according to Reference Example 1 and divided by a time (unit: hr) required for change in lactic acid concentration to calculate the production rate of lactic acid per unit time (unit: g of lactic acid/L/hr). In addition, a relative value to the production rate of lactic acid under control conditions in each Production Example was determined.

[4] = Evaluation of foaming property by the inversion stirring method; format: physicochemical
Procedure: Each surfactant used in Test Example 2 was evaluated for its foaming properties by the inversion stirring method. 100 mL of a PDB medium non-supplemented or supplemented with 0.5% (w/v) (final concentration) of a surfactant was added to a graduated cylindrical container of 50 mm in diameter and then inversion-stirred for 300 seconds using a flat propeller while the propeller was inverted every 6 seconds at 1000 rpm. 30 seconds after the completion of stirring, the volume of foam in the medium was measured.

[5] = test system: Rhizopus oryzae NBRC 4707; test: Evaluation of ability to produce lactic acid-2, strain NBRC 4707; format: cell-based; settings: 0.5% (w/v) at spore germination, control of the strain without surfactant = 100
Procedure: as §1, §2, §3, §4

[6] = test system: fungus of the genus Rhizopus; test: Evaluation of ability to produce lactic acid by repetitive use of fungus body; format: cell-based; settings: 0.5% (w/v) at germination, relative to control without surfactant in the first repetition
Procedure: Mycelia of a fungus of the genus Rhizopus were prepared in a medium non-supplemented with or containing 0.5% (w/v) (final concentration) of the surfactant sorbitan monolaurate (Rheodol(R) SP-L10) by the same procedures as in Test Example 4(2) and then cultured by the same procedures as in Test Example 4(3). The obtained fungus bodies were recovered by the same procedures as in Test Example 5(4). Subsequently, 25 g of the wet fungus bodies was cultured for 4 hours in an inorganic culture medium for lactic acid production evaluation by the same procedures as in Test Example 5. The production rate of lactic acid was determined. The same procedures of fungus body recovery and culture were repeated, and the production rate of lactic acid was determined at each run (the number of repetitions: 3). The production rate of lactic acid at each run was calculated as a relative value to the production rate of lactic acid under the control conditions (in the absence of the surfactant) in the first repetition. The concentration of lactic acid (unit: g of lactic acid/L of medium) in the supernatant sample of each culture medium was measured according to Reference Example 1 and divided by a time (unit: hr) required for change in lactic acid concentration to calculate the production rate of lactic acid per unit time (unit: g of lactic acid/L/hr). In addition, a relative value to the production rate of lactic acid under control conditions in each Production Example was determined.

Sorbitan monolaurate
Production rate of lactic acid (relative value) [1]: 130 relative value | Production rate of lactic acid (relative value) [2]: 135 relative value | Production rate of lactic acid (relative value) [3]: 152 relative value | Volume of foam relative to the volume of foam in the absence of the surfactant (in words) ([4]; 0.5% (w/v) in PDB medium): twice or less | Volume of foam (relative value) ([4]; 0.5% (w/v) surfactant in PDB medium, 30 seconds after stirring, foam in the absence of the surfactant = 100): 150 relative value | Production rate of lactic acid (relative value) [5]: 135 relative value | Production rate of lactic acid (relative value) ([6]; repetition 1): 173 relative value | Production rate of lactic acid (relative value) ([6]; repetition 2): 170 relative value | Production rate of lactic acid (relative value) ([6]; repetition 3): 167 relative value
